# According to patent US12673918B2, “Small molecule RPN13 inhibitors with antitumor properties” (The Johns Hopkins University, priority 2019, dated 2026):
# Legend:
# [1] = tested on: T22; test: MTT cytotoxicity assay, T22; conditions: read-out: cytotoxicity IC50 T22, Tables 3A/4B/4C, BRCA2 + VE
# [2] = tested on: ES2 cells; test: Seahorse mitochondrial stress test, ES2 cells; type: cell-based, human
# Procedure: During the mitochondrial stress test, baseline OCR measurements were followed by the addition of the compound oligomycin to measure ATP-linked respiration. Upon addition of the uncoupler FCCP, maximal respiration is measured. […] At the end of the assay, a mix of rotenone and antimycin A was injected to provide a measure of non-mitochondrial respiration. […] To determine the impact of RA413S on glycolysis, ES2 cells were incubated in medium without glucose or pyruvate and the baseline ECAR was measured. Addition of glucose allows the measurement of the glycolysis rate. This was followed by the injection of oligomycin which inhibits mitochondrial ATP production and shifts the energy production to glycolysis. The consequent rise in ECAR measures the cellular maximum glycolytic capacity.
# Seahorse Assay: For quantification of oxygen consumption rate, ES2 cells were seeded at 20,000 cells per well in Seahorse XF96 Analyzer plates in regular media and incubated at 37° C. with 5% CO2 overnight. […] The plate was then loaded into the Seahorse machine and readings of oxygen and pH levels were taken before and after injections of 3 μM oligomycin, 4 μM FCCP, 2 μM antimycin, and 2 μM rotenone. Oxygen consumption rate and extracellular acidification rate were analyzed using Wave 2.4 software.
# [3] = tested on: SKOV3
# Procedure: (§1) Cell lines and cytotoxicity assays: All cell lines were obtained from the American Type Culture Collection (ATCC) and cultured in the specified medium supplemented with 10% fetal bovine serum, 100 IU/mL penicillin, and 100 μg/mL streptomycin at 37° C. in a humidified 5% CO2/95% air incubator. […] To assess drug cytotoxicity, cells were seeded at 2,500 cells/well (10,000 cells/well for MM lines) in 100 μL medium in 96-well plate and after 24 treated with compounds for 72 h, incubated according to the manufacturer's protocol with the Thiazolyl Blue Tetrazolium Bromide (Sigma, M2128) and A570 measured using a Benchmark Plus microplate spectrophotometer (BIO-RAD). IC50 data was analyzed by Graphpad Prism software.
# [4] = in vitro; conditions: human
# Procedure: (§2) Cell lines and cytotoxicity assays: All cell lines were obtained from the American Type Culture Collection (ATCC) and cultured in the specified medium supplemented with 10% fetal bovine serum, 100 IU/mL penicillin, and 100 μg/mL streptomycin at 37° C. in a humidified 5% CO2/95% air incubator. […] To assess drug cytotoxicity, cells were seeded at 2,500 cells/well (10,000 cells/well for MM lines) in 100 μL medium in 96-well plate and after 24 treated with compounds for 72 h, incubated according to the manufacturer's protocol with the Thiazolyl Blue Tetrazolium Bromide (Sigma, M2128) and A570 measured using a Benchmark Plus microplate spectrophotometer (BIO-RAD). IC50 data was analyzed by Graphpad Prism software. In the chirality studies the cells were treated with compounds for 48 h, and the cells were incubated and measured via the preceeding protocols.
# [5] = tested on: OVCAR3; conditions: human
# [6] = tested on: MCF7; conditions: human
# [7] = tested on: proteasome (4UbFL reporter); test: 4UbFL reporter, ES2 cells stably expressing 4UbFL; type: cell-based, human; conditions: ES2 stably expressing 4UbFL, 4 h
# From the text: FIG. 14B illustrates fold increase in bioluminiscence of ES2 cells stably expressing 4UbFL at 4 hrs post-treatment of compounds, as measured by luminometer.
# Next examined was the effect of compounds on proteasome function using a DNA construct that expresses a reporter gene comprising firefly luciferase fused to four molecules of ubiquitin (4UbFL) at its amino terminus (41). The 4UbFL is rapidly degraded by active proteasomes, resulting in a low level of enzymic activity and bioluminescence. Upon proteasome inhibition, increased 4UbFL activity can be measured by luminescence assay using luciferin as a substrate as the protein is stabilized.
# [8] = tested on: RPE1-ATMKO; test: MTT cytotoxicity assay, RPE1-ATMKO; conditions: read-out: cytotoxicity IC50 RPE1-ATMKO
# Procedure: as §2
# [9] = MTT cytotoxicity assay, RPE1; conditions: human
# Procedure: as §2
# [10] = tested on: ID8-vegf; conditions: mouse
# [11] = tested on: VU147T; test: MTT cytotoxicity assay, VU147T; type: cell-based; conditions: Table 3, 48 hr, Head & Neck (HPV +ve)
# Procedure: as §1
# [12] = tested on: proteasome (4UbFL reporter); test: 4UbFL proteasome reporter, transfected 293T cells; type: cell-based; conditions: 4 hours
# From the text: FIG. 9A illustrates 293T cells in 96 well plates transiently transected with the 4UbFL plasmid and 48 hr later treated with the indicated doses of each compound for 4 hr. Cells were lysed and luciferase activity assessed using a luminometer.
# To monitor proteasome activity in living cells, a construct was used expressing a fusion protein comprising four tandem repeats of ubiquitin fused in frame with firefly luciferase (4UbFL) (41) to cause this otherwise stable reporter protein to undergo rapid proteolytic degradation via the proteasome. To assess their capacity to inhibit cellular proteasome function, 293T cells were transiently transfected with the 4UbFL construct and then […] treated with compounds for 4 hours prior to assay of luciferase activity. Like bortezomib, RA375 induced a dramatic increase in bioluminescence, consistent with stabilization of 4UbFL, in a dose dependent manner. At very high concentrations the luciferase activity dropped because of cellular toxicity.
# Reporter assays: Sub-confluent cultures of cells were transfected with 4Ub-FL or FL plasmid using TransIT 2020 reagent (Minis Bio). […] Luciferase activity in cell lysate was determined with a luciferase assay kit (Promega) according to the manufacturer's instructions. Bioluminescence was measured by using a Glomax Multidetection system (Promega).
# [13] = target: RPN13 (Homo sapiens, UniProt Q16186); test: RA183B competition / direct biotin labelling of RPN13 in cell lysate; type: binding; conditions: SKOV3 cell lysate pre-treated with compound, labelled with RA183B
# Sequence of RPN13 (Q16186 whole entry): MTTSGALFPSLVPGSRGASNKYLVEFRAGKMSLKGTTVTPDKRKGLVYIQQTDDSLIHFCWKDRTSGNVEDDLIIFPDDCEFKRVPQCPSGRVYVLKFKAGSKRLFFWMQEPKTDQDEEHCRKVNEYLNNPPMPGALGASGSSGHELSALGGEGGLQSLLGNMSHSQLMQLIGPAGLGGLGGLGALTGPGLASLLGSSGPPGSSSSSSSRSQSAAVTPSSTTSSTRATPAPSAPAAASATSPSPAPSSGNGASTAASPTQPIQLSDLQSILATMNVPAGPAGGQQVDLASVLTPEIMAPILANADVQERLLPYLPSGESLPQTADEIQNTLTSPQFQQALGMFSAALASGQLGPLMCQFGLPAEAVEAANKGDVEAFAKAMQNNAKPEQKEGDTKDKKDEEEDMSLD
# Procedure: It has been shown preciously that RA183 adducts Cysteine 88 of RPN13 (13). […] Samples were subjected to SDS-PAGE and transferred to a PVDF membrane. The membrane was probed with HRP-Streptavidin antibody, and the blot developed using chemiluminescence.
# A direct labelling assay in cell lysate of ES2, a human ovarian cancer-derived cell line, using RA413B and RA183B was performed.
# Biotin labeling Assay: Clarified cell lysate in MPER buffer was pretreated with streptavidin magna beads for 45 min at 4° C. to deplete non-specific biotinylated proteins in the cell lysate. The beads were separated and 40 μL of the pre-cleared cell lysate was incubated with compounds (20 μM) for 45 min at 4° C., and then treated with RA183B, RA190B, or RA413SB (10 μM) for 45 min at 4° C. Next, the samples were mixed with Laemmli sample buffer (BioRad) and boiled for 5 min. […] (24 V). The membrane was blocked with 5% BSA in PBST for 1 hr at RT and washed for 20 minutes (3× with PBST). Then the membrane was probed with HRP-streptavidin (1:10,000 in PBST) for 1 hr at RT, washed for 30 min (3× with PBST), and developed using HyGLO chemiluminescent detection reagent (Denville) for biotin detection.
structure (smiles),measurement,setting,value
C[C@H]1/C(=C\c2ccc([N+](=O)[O-])cc2)C(=O)/C(=C/c2ccc([N+](=O)[O-])cc2)CN1C(=O)[C@@H](N)Cc1ccccc1,IC50,[1],1360 nM
same,decrease of ATP production,"[2]; ES2, 12 hr, 100 nM",~4 fold
same,maximal respiration,"[2]; ES2, relative to vehicle or RA414-treated groups",significantly reduced
same,fold more cytotoxic than RA413R,[3],4 fold
same,IC50,[4],41 nM
same,IC50,[5],69 nM
same,IC50,[6],250 nM
same,4UbFL bioluminescence,[7],increased bioluminescence in a dose dependent manner
same,IC50,[8],24 nM
"CC(C)C[C@H](NC(=O)[C@H](Cc1ccccc1)NC(=O)c1cnccn1)B(O)O [Bortezomib, bortezomib, reference compound]",IC50,[9]; RPE1 cells,3.5 nM
"N[C@@H](Cc1ccccc1)C(=O)N1C/C(=C\c2ccc(Cl)c(Cl)c2)C(=O)/C(=C/c2ccc(Cl)c(Cl)c2)C1 [RA190, reference compound]",IC50,[1],16300 nM
O=C(CCl)N[C@@H](Cc1ccccc1)C(=O)N1C/C(=C\c2ccc([N+](=O)[O-])cc2)C(=O)/C(=C/c2ccc([N+](=O)[O-])cc2)C1 [RA375],IC50,[4],41 nM
same,IC50,[10],44 nM
same,IC50,[11],40 nM
same,fold more potent than RA190 (4UbFL stabilization),[12],4 fold
same,fold more potent than bortezomib (4UbFL stabilization),[12],2 fold
CC1/C(=C\c2ccc([N+](=O)[O-])cc2)C(=O)/C(=C/c2ccc([N+](=O)[O-])cc2)CN1C(=O)[C@H](Cc1ccccc1)NC(=O)CCl (some centres unmarked) [RA414],competition with RA183B binding to RPN13,[13],inhibited by pre-incubation with RA414
same,IC50,[9],< 40 nM
same,4UbFL bioluminescence,[7],increased bioluminescence in a dose dependent manner
same,IC50,[8],< 40 nM
